Measured values reported in PubChem BioAssay AID248 (DTP/NCI, 2004).
“And” between values parts separate entries of the source, which are not always exact repeats. Equal values may be shown once. Toxic doses and inconclusive results are not listed.

System: L1210 leukemia ip in BDF1 mice, survival T/C
Test: NCI In Vivo Anticancer Drug Screen. Data for tumor model L1210 Leukemia (intraperitoneal) in B6D2F1 (BDF1) mice
Conditions: endpoint: mean survival time, higher = longer survival
Method in brief: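 Tumor cells were implanted, animals were treated, and survival was followed. The result divides the treated measurement by the vehicle-control measurement.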

[1] = dose: 100.0 mg/kg/injection, schedule: Q04DX003 (ip), vehicle: saline
[2] = dose: 200.0 mg/kg/injection, schedule: Q04DX003 (ip), vehicle: saline
[3] = dose: 400.0 mg/kg/injection, schedule: Q04DX003 (ip), vehicle: saline
[4] = dose: 100.0 mg/kg/injection, schedule: Q01DX009 (ip), vehicle: Klucel (hydroxypropylcellulose) (HPC)
[5] = dose: 100.0 mg/kg/injection, schedule: Q04DX003 (ip), vehicle: Klucel (hydroxypropylcellulose) (HPC)
[6] = dose: 200.0 mg/kg/injection, schedule: Q01DX009 (ip), vehicle: Klucel (hydroxypropylcellulose) (HPC)
[7] = dose: 200.0 mg/kg/injection, schedule: Q04DX003 (ip), vehicle: Klucel (hydroxypropylcellulose) (HPC)
[8] = dose: 400.0 mg/kg/injection, schedule: Q01DX009 (ip), vehicle: Klucel (hydroxypropylcellulose) (HPC)
[9] = dose: 400.0 mg/kg/injection, schedule: Q04DX003 (ip), vehicle: Klucel (hydroxypropylcellulose) (HPC)

Which results are given for CC(C)(C)c1ccc(/C=[N+](\[O-])C(C)(C)C)c(C(C)(C)C)c1O?
T/C (dose: 50.0 mg/kg/injection, schedule: Q04DX002 (ip), vehicle: saline with Tween-80): 102 % of control; T/C (dose: 100.0 mg/kg/injection, schedule: Q04DX002 (ip), vehicle: saline with Tween-80): 98 % of control; T/C (dose: 200.0 mg/kg/injection, schedule: Q04DX002 (ip), vehicle: saline with Tween-80): 102 % of control; T/C (dose: 400.0 mg/kg/injection, schedule: Q04DX002 (ip), vehicle: saline with Tween-80): 95 % of control

With CNC(=O)Oc1ccc([N+](C)(C)C)cc1 as the molecule, how does the T/C (dose: 9.5 mg/kg/injection, schedule: Q01DX001 (ip), vehicle: saline) read?
Its T/C is 109 % of control.

And the T/C (dose: 19.0 mg/kg/injection, schedule: Q01DX001 (ip), vehicle: saline)?
Its T/C is 100 % of control.

With COC1OC(CNCCO)C2OC(C)(C)OC12 (stereo not drawn) as the molecule, how does the T/C (dose: 100.0 mg/kg/injection, schedule: Q01DX009 (ip), vehicle: saline) read?
Its T/C is 103 % of control.

What about the T/C [1] of the same molecule?
The T/C was 101 % of control.

And the T/C (dose: 200.0 mg/kg/injection, schedule: Q01DX009 (ip), vehicle: saline)?
The T/C was 96 % of control.

What about the T/C [2] of the same molecule?
Its T/C is 98 % of control.

What about the T/C (dose: 400.0 mg/kg/injection, schedule: Q01DX009 (ip), vehicle: saline) of the same molecule?
The T/C was 101 % of control.

What about the T/C [3] of the same molecule?
Its T/C is 95 % of control.

What does the source list for C1CN(P2(N3CC3)=NP(N3CC3)(N3CC3)=NP(N3CC3)(N3CC3)=N2)CCO1 (stereo not drawn)?
T/C (dose: 6.25 mg/kg/injection, schedule: Q01DX009 (ip), vehicle: saline): 116 % of control and 119 % of control; T/C (dose: 12.5 mg/kg/injection, schedule: Q01DX009 (ip), vehicle: saline): 120 % of control; T/C (dose: 25.0 mg/kg/injection, schedule: Q01DX001 (ip), vehicle: saline): 114 % of control and 119 % of control; T/C (dose: 25.0 mg/kg/injection, schedule: Q01DX009 (ip), vehicle: saline): 156 % of control and 164 % of control; T/C (dose: 50.0 mg/kg/injection, schedule: Q01DX009 (ip), vehicle: saline): 99 % of control and 104 % of control and 87 % of control; T/C (dose: 100.0 mg/kg/injection, schedule: Q01DX001 (ip), vehicle: saline): 181 % of control and 185 % of control; T/C (dose: 200.0 mg/kg/injection, schedule: Q01DX001 (ip), vehicle: saline): 89 % of control

What does the source list for O=C(NC(CO)C(=O)OCc1ccccc1)OCc1ccccc1 (stereo not drawn)?
T/C [4]: 104 % of control; T/C [5]: 104 % of control; T/C (dose: 100.0 mg/kg/injection, schedule: Q04DX003 (ip), vehicle: saline with Tween-80): 98 % of control; T/C [6]: 102 % of control; T/C [7]: 101 % of control; T/C (dose: 200.0 mg/kg/injection, schedule: Q04DX003 (ip), vehicle: saline with Tween-80): 95 % of control; T/C [8]: 102 % of control; T/C [9]: 90 % of control; T/C (dose: 400.0 mg/kg/injection, schedule: Q04DX003 (ip), vehicle: saline with Tween-80): 90 % of control

What does the source list for O=C(Oc1ccccc1C(=O)O)c1ccccc1O?
T/C (dose: 50.0 mg/kg/injection, schedule: Q04DX003 (ip), vehicle: Klucel (hydroxypropylcellulose) (HPC)): 90 % of control; T/C [5]: 97 % of control and 102 % of control; T/C [7]: 114 % of control; T/C [9]: 96 % of control

How did the T/C [4] turn out when C/C(=C\C(=O)Nc1ncn[nH]1)Nc1ncn[nH]1 was run?
The T/C was 100 % of control.

And the T/C [5]?
The T/C was 95 % of control.

And the T/C [6]?
The T/C was 92 % of control.

What about the T/C [7] of the same molecule?
The T/C was 106 % of control.

And the T/C [8]?
Its T/C is 102 % of control.

What about the T/C [9] of the same molecule?
Its T/C is 93 % of control.

What does the source list for Clc1ccc(Cl)c(-c2csc(Nc3cccnc3)n2)c1?
T/C [1]: 92 % of control; T/C [2]: 94 % of control; T/C [3]: 97 % of control

Which T/C (dose: 50.0 mg/kg/injection, schedule: Q01DX001 (ip), vehicle: carboxymethylcellulose (CMC)) does the source give for O=c1[nH]cc(O)c(=O)[nH]1 here?
Its T/C is 100 % of control.

And the T/C (dose: 62.5 mg/kg/injection, schedule: Q#A X018 (ip), vehicle: saline)?
The T/C was 98 % of control.

What about the T/C (dose: 100.0 mg/kg/injection, schedule: Q01DX001 (ip), vehicle: carboxymethylcellulose (CMC)) of the same molecule?
Its T/C is 102 % of control.

And the T/C (dose: 125.0 mg/kg/injection, schedule: Q#A X018 (ip), vehicle: saline)?
The T/C was 104 % of control.

What about the T/C (dose: 176.0 mg/kg/injection, schedule: Q01DX Z (ip), vehicle: carboxymethylcellulose (CMC)) of the same molecule?
The T/C was 107 % of control.

What about the T/C (dose: 200.0 mg/kg/injection, schedule: Q01DX001 (ip), vehicle: carboxymethylcellulose (CMC)) of the same molecule?
Its T/C is 107 % of control.

What about the T/C (dose: 250.0 mg/kg/injection, schedule: Q#A X018 (ip), vehicle: saline) of the same molecule?
Its T/C is 115 % of control.

What about the T/C (dose: 267.0 mg/kg/injection, schedule: Q01DX015 (ip), vehicle: saline) of the same molecule?
Its T/C is 115 % of control.

And the T/C (dose: 267.0 mg/kg/injection, schedule: Q01DX Z (ip), vehicle: carboxymethylcellulose (CMC))?
Its T/C is 120 % of control.

And the T/C (dose: 400.0 mg/kg/injection, schedule: Q01DX001 (ip), vehicle: carboxymethylcellulose (CMC))?
The T/C was 100 % of control.

What about the T/C (dose: 400.0 mg/kg/injection, schedule: Q01DX015 (ip), vehicle: saline) of the same molecule?
The T/C was 120 % of control.

What about the T/C (dose: 600.0 mg/kg/injection, schedule: Q01DX015 (ip), vehicle: saline) of the same molecule?
The T/C was 119 % of control.
